The values that follow are results of earlier work, collected in paper PMC5748270 (Organic & biomolecular chemistry, 2017).

One series has as its system Plasmodium falciparum K1. To be noted: selectivity on par with artesunate.
The subject of a further series is B16 melanoma. The settings on record: comparably to mitomycin C.
The test system of the next series is HSV-1. To be noted: read-out: HSV-1 antiviral EC50.

For `O=C(O)c1cc(O)c(O)c(=O)c(O)c1` [puberulic acid], in the series with Plasmodium falciparum K1, the Antimalarial activity entry is listed as “potent antimalarial activity”. Turning to `O=c1c(O)cccc(O)c1O` [3,7-dHT, 3,7-Dihydroxytropolones], the “cell-based HIV antiviral activity” value in the series with HIV is on record as “promising cell-based HIV antiviral activity”. In addition, the “Activity against B16 melanoma cells relative to αHTs” value in the series with B16 melanoma cells is reported as “an order of magnitude greater than αHTs”. In addition, in the series on B16 melanoma, the “Lifespan of mice bearing B16 melanoma” value is recorded as “increases the lifespan”. On to manicol, for which the EC50 with HSV-1 was 350 nM; with HSV-2 (read-out: HSV-2 antiviral EC50) it was 580 nM. With `Nc1nc2c(ncn2COCCO)c(=O)[nH]1` [ACV, acyclovir], in the series on HSV-2 (obtained previously under identical conditions), the “Potency against HSV-2 relative to HSV-1” value was “nearly an order of magnitude less potent”.

A word on the EC50: it is the concentration giving half of the maximal effect.
